tested on: HCI-019 (organoid from a triple-negative breast cancer xenograft); test: CTG-3D luminescence at 96 h relative to day-0 seeding control (ratio to day 0); higher = more growth / less cytotoxicity; PDxO 3D drug screen, 96 h, CTG-3D normalised to day-0 seeding control.; details: 100 µM; days in culture: 110

| Structure (SMILES) | CTG-3D luminescence at 96 h |
| --- | --- |
| COc1cccc2c1C(=O)c1c(O)c3c(c(O)c1C2=O)C[C@@](O)(C(=O)CO)C[C@@H]3O[C@H]1C[C@H](N)[C@H](O)[C@H](C)O1 [doxorubicin] | -0.00853 |
| O=C(O)C1(C(=O)O)CCC1.[NH2-].[NH2-].[Pt+2] [carboplatin] | 0.26 |
| NC(=O)Nc1cc(-c2cccc(F)c2)sc1C(=O)N[C@H]1CCCNC1 [AZD7762] | -0.000246 |
| Nc1ccn([C@@H]2O[C@H](CO)[C@@H](O)C2(F)F)c(=O)n1 [gemcitabine] | 0.181 |
| CC1(C)CCC(c2ccc(Cl)cc2)=C(CN2CCN(c3ccc(C(=O)NS(=O)(=O)c4ccc(N[C@H](CCN5CCOCC5)CSc5ccccc5)c(S(=O)(=O)C(F)(F)F)c4)cc3)CC2)C1 [navitoclax] | 0.0111 |
| CN(Cc1cnc2nc(N)nc(N)c2n1)c1ccc(C(=O)N[C@@H](CCC(=O)O)C(=O)O)cc1 [methotrexate] | 1.35 |
| C=CCn1c(=O)c2cnc(Nc3ccc(N4CCN(C)CC4)cc3)nc2n1-c1cccc(C(C)(C)O)n1 [adavosertib] | 0.502 |
| CC(C)(C(=O)NCC(F)(F)C(F)(F)F)C(=O)N[C@@H]1C(=O)Nc2ccccc2-c2ccccc21 | 1.37 |
| C[C@@H]1COCCN1c1cc(C2([S@](C)(=N)=O)CC2)nc(-c2cc[nH]c3nccc2-3)n1 [ceralasertib] | 0.468 |
| CCN1CCN(Cc2ccc(Nc3ncc(F)c(-c4cc(F)c5nc(C)n(C(C)C)c5c4)n3)nc2)CC1 [abemaciclib] | 0.016 |

same assay, conditions: 100 µM; days in culture: 131

| Structure (SMILES) | CTG-3D luminescence at 96 h |
| --- | --- |
| COc1cccc2c1C(=O)c1c(O)c3c(c(O)c1C2=O)C[C@@](O)(C(=O)CO)C[C@@H]3O[C@H]1C[C@H](N)[C@H](O)[C@H](C)O1 [doxorubicin] | -0.0127 |
| O=C(O)C1(C(=O)O)CCC1.[NH2-].[NH2-].[Pt+2] [carboplatin] | 0.234 |
| NC(=O)Nc1cc(-c2cccc(F)c2)sc1C(=O)N[C@H]1CCCNC1 [AZD7762] | 0.00562 |
| Nc1ccn([C@@H]2O[C@H](CO)[C@@H](O)C2(F)F)c(=O)n1 [gemcitabine] | 0.213 |
| CC1(C)CCC(c2ccc(Cl)cc2)=C(CN2CCN(c3ccc(C(=O)NS(=O)(=O)c4ccc(N[C@H](CCN5CCOCC5)CSc5ccccc5)c(S(=O)(=O)C(F)(F)F)c4)cc3)CC2)C1 [navitoclax] | 0.0147 |
| CN(Cc1cnc2nc(N)nc(N)c2n1)c1ccc(C(=O)N[C@@H](CCC(=O)O)C(=O)O)cc1 [methotrexate] | 2.11 |
| C=CCn1c(=O)c2cnc(Nc3ccc(N4CCN(C)CC4)cc3)nc2n1-c1cccc(C(C)(C)O)n1 [adavosertib] | 0.4 |
| CC(C)(C(=O)NCC(F)(F)C(F)(F)F)C(=O)N[C@@H]1C(=O)Nc2ccccc2-c2ccccc21 | 2.28 |
| C[C@@H]1COCCN1c1cc(C2([S@](C)(=N)=O)CC2)nc(-c2cc[nH]c3nccc2-3)n1 [ceralasertib] | 0.71 |
| CCN1CCN(Cc2ccc(Nc3ncc(F)c(-c4cc(F)c5nc(C)n(C(C)C)c5c4)n3)nc2)CC1 [abemaciclib] | 0.0216 |

same assay, conditions: 100 µM; days in culture: 152

| Structure (SMILES) | CTG-3D luminescence at 96 h |
| --- | --- |
| COc1cccc2c1C(=O)c1c(O)c3c(c(O)c1C2=O)C[C@@](O)(C(=O)CO)C[C@@H]3O[C@H]1C[C@H](N)[C@H](O)[C@H](C)O1 [doxorubicin] | -0.00918 |
| O=C(O)C1(C(=O)O)CCC1.[NH2-].[NH2-].[Pt+2] [carboplatin] | 0.291 |
| NC(=O)Nc1cc(-c2cccc(F)c2)sc1C(=O)N[C@H]1CCCNC1 [AZD7762] | 0.00479 |
| Nc1ccn([C@@H]2O[C@H](CO)[C@@H](O)C2(F)F)c(=O)n1 [gemcitabine] | 0.424 |
| CC1(C)CCC(c2ccc(Cl)cc2)=C(CN2CCN(c3ccc(C(=O)NS(=O)(=O)c4ccc(N[C@H](CCN5CCOCC5)CSc5ccccc5)c(S(=O)(=O)C(F)(F)F)c4)cc3)CC2)C1 [navitoclax] | 0.00119 |
| CN(Cc1cnc2nc(N)nc(N)c2n1)c1ccc(C(=O)N[C@@H](CCC(=O)O)C(=O)O)cc1 [methotrexate] | 2.16 |
| C=CCn1c(=O)c2cnc(Nc3ccc(N4CCN(C)CC4)cc3)nc2n1-c1cccc(C(C)(C)O)n1 [adavosertib] | 0.519 |
| CC(C)(C(=O)NCC(F)(F)C(F)(F)F)C(=O)N[C@@H]1C(=O)Nc2ccccc2-c2ccccc21 | 1.12 |
| C[C@@H]1COCCN1c1cc(C2([S@](C)(=N)=O)CC2)nc(-c2cc[nH]c3nccc2-3)n1 [ceralasertib] | 0.499 |
| CCN1CCN(Cc2ccc(Nc3ncc(F)c(-c4cc(F)c5nc(C)n(C(C)C)c5c4)n3)nc2)CC1 [abemaciclib] | 0.012 |

same assay, conditions: 625 fM; days in culture: 110

| Structure (SMILES) | CTG-3D luminescence at 96 h |
| --- | --- |
| COc1cccc2c1C(=O)c1c(O)c3c(c(O)c1C2=O)C[C@@](O)(C(=O)CO)C[C@@H]3O[C@H]1C[C@H](N)[C@H](O)[C@H](C)O1 [doxorubicin] | 1.91 |
| O=C(O)C1(C(=O)O)CCC1.[NH2-].[NH2-].[Pt+2] [carboplatin] | 1.97 |
| NC(=O)Nc1cc(-c2cccc(F)c2)sc1C(=O)N[C@H]1CCCNC1 [AZD7762] | 2.15 |
| Nc1ccn([C@@H]2O[C@H](CO)[C@@H](O)C2(F)F)c(=O)n1 [gemcitabine] | 2.3 |
| CC1(C)CCC(c2ccc(Cl)cc2)=C(CN2CCN(c3ccc(C(=O)NS(=O)(=O)c4ccc(N[C@H](CCN5CCOCC5)CSc5ccccc5)c(S(=O)(=O)C(F)(F)F)c4)cc3)CC2)C1 [navitoclax] | 2.31 |
| CN(Cc1cnc2nc(N)nc(N)c2n1)c1ccc(C(=O)N[C@@H](CCC(=O)O)C(=O)O)cc1 [methotrexate] | 2.13 |
| C=CCn1c(=O)c2cnc(Nc3ccc(N4CCN(C)CC4)cc3)nc2n1-c1cccc(C(C)(C)O)n1 [adavosertib] | 2.37 |

— the supplement of paper PMC8882468
